Laboratory results: patent US20260183302A1, “PDK1 REGULATORY COMPOUND AND COMPOSITION CONTAINING THE SAME” (PROVIBIO CO., LTD., priority 2024, published 2026)
“Also recorded” adds a separate entry of the source.

Tests used:
[1] = test system: MRL/lpr mice with hair loss in the facial region; assay: Hair loss treatment and hair follicle Ki-67 IHC in MRL/lpr mice; assay type: in vivo; settings: 41-week-old female MRL/lpr; GO15F (30 mg/kg), GO48 (1 mg/kg), GO88 (0.5 mg/kg) intraperitoneal once daily
Protocol: Additionally, in 41-week-old female MRL/Ipr mice, the compounds GO15F (30 mg/kg), GO48 (1 mg/kg), and GO88 (0.5 mg/kg) were administered intraperitoneally once daily.
To confirm the proliferative activity of hair follicle cells in the skin tissue of these mice, the mice were sacrificed 14 days after administration of the compounds of the present invention, and Ki-67 immunohistochemistry (IHC) was performed.
For this purpose, the excised skin tissue was fixed in formalin, embedded in paraffin blocks, and stained with a Ki-67-specific antibody on tissue sections prepared as slides.

[2] = test system: pulmonary fibrosis-induced mice; assay: Bleomycin-induced pulmonary fibrosis animal model; assay type: in vivo, Balb/c mice; settings: bleomycin mice lung, vs BLM-treated group
Source text: To evaluate the therapeutic efficacy of the compound according to the present invention against pulmonary fibrosis, an animal model of pulmonary fibrosis induced by bleomycin intratracheal administration was established.
For this purpose, 8-week-old male Balb/c mice were subjected to general anesthesia using an inhalation anesthetic (2-3% isoflurane in oxygen), followed by disinfection of the neck region, skin incision, and exposure of the trachea.
Bleomycin (Sigma-Aldrich, USA) was directly administered into the trachea at a concentration of 5 mg/kg in a solution of 100 μL.
Two days prior to Bleomycin administration, the compound of the present invention or the comparative drug was administered intraperitoneally at the specified concentration and dose, and the administration was continued once daily for a total of 14 days.
The experimental groups included Normal, Bleomycin alone (BLM), and BLM plus the compound of the present invention (BLM+GO88, 0.2 mg/kg).
Ten days later, the mice were euthanized humanely using carbon dioxide gas, the trachea was incised, and PBS was injected into the trachea to remove blood from the lungs.
The lung tissue washed with PBS was excised, fixed in 4% paraformaldehyde solution for 24 hours, and then paraffin blocks and tissue sections were prepared. The prepared sections were subjected to pathological analysis using H&E, Masson's trichrome, and Sirius red staining.
Additionally, immunohistochemical (IHC) staining was performed for α-SMA (α-smooth muscle actin), an indicator of lung fibroblast activation.

psoriasis-induced mice = assay: In vivo psoriasis model (Aldara cream, Imiquimod); design: species or system BALB/c mice
Protocol: To verify the therapeutic effect of the compound according to the present invention on psoriasis, a psoriasis animal model was established as follows, and the compound according to the present invention was administered to evaluate the alleviation of skin lesions and changes in immune cell patterns.
For the establishment of the psoriasis animal model, BALB/c mice (7 weeks old, female, 20 g) were purchased from HanabioTech Co., Ltd. and acclimatized to the rearing environment for one week.
Subsequently, the hair on the mouse back was shaved using a hair removal device for the first time, and then completely shaved using a depilatory cream (Nicrin Cream (80% thioglycolic acid, Il Dong Pharmaceutical)) for the second time. The mice were then kept for 24 hours to confirm the absence of skin damage.
To verify the psoriasis prevention and therapeutic effects of the compounds according to the present invention, the following experimental groups were established:
[Normal control group (Normal, Not Treatment), psoriasis-induced control group (Psoriasis, Not Treatment), psoriasis-induced vehicle control group (Psoriasis, Vehicle), experimental group (GO85, GO86, GO88, GO89, PBK-2024-010, PBK-2024-026, PBK-2025-002, PBK-2025-004, PBK-2025-016, PBK-2025-017, PBK-2025-023)]. […]
Body weights of mice in each group were measured on days 1, 4, and 8 after the start of injection and psoriasis induction. […]
To evaluate the therapeutic effect in a psoriasis-induced mouse model, the PASI (Psoriasis Area and Severity Index) score was measured.
The PASI score is based on three criteria: erythema, scaling, and skin thickness, each scored from 0 (none) to 4 (severe). […]
Observations were conducted daily at the same time, and the same observer visually assessed each criterion and recorded the scores, with the results presented in FIG. 13. […]
All samples were measured in duplicate, and the absorbance was measured at 450 nm using a microplate reader.

[3] = test system: PDK1 phosphorylation in SU-DHL-8 cells; assay: PDK1 phosphorylation inhibition by flow cytometry (pPDK1-PE) in SU-DHL-8 cells; assay type: cell-based, human; settings: SU-DHL-8, 24 hours, vs control group
Protocol: After stabilizing the cells, the compound of the present invention was added, and the cells were cultured for 24 hours.
After drug treatment, the cells were harvested, and the Fc receptor blocking process was performed. The cells were then fixed and permeabilized using the Intracellular Staining Kit (Cat. No. BD554715) from BD Biosciences. Subsequently, the intracellular pPDK1 was stained using the pPDK1-PE fluorescently labeled antibody (BD Biosciences).
Referring to the figure, the vertical axis represents the phosphorylation level of PDK1 (phospho-PDK1 expression level), and the horizontal axis denotes the concentration-dependent treatment conditions of each compound.

Molecule | hair growth on the facial region [1] | collagen deposition (Masson's trichrome and Sirius red staining) [2] | expression of α-SMA (IHC) [2] | efficacy in improving dermatological symptoms (psoriasis-induced mice) | phospho-PDK1 expression level ([3]; listed as GO88) | phospho-PDK1 expression level ([3]; listed as GO86) | phospho-PDK1 expression level [3]
Nc1ncccc1C(=O)NCCCCCCCCCCCCN1CCNCC1 [Compound 14, 2-Amino-N-(12-(piperazin-1-yl)dodecyl)nicotinamide] | hair growth was confirmed | significantly reduced | significantly suppressed | excellent efficacy in improving dermatological symptoms | stronger PDK1 inhibition; also recorded: high inhibitory effects even at low concentrations |  | 
12-[4-(2,2-dimethylmorpholin-4-yl)]dodecyl-N-(6-aminopurine-2-yl) carboxamide [Compound 11] |  |  |  | excellent efficacy in improving dermatological symptoms |  | stronger PDK1 inhibition; also recorded: high inhibitory effects even at low concentrations | 
Nc1ncccc1C(=O)NCCCCCCCCCCCCF [Compound 57, 2-Amino-N-(12-fluoro-dodecyl)-nicotinamide] | hair growth was confirmed | significantly reduced | significantly suppressed |  |  |  | inhibitory effect on PDK1 phosphorylation
